Results: patent US9833497B2, “Human originated EGF domain proteins and use of the same” (CHENGDU SOURCEBIO LIMITED-LIABILITY COMPANY, priority 2013, dated 2017)

How the values were obtained:
Assay type in all cases: cell-based
Aeromonas hydrophila = experiment: MIC against Gram-negative bacteria: Aeromonas hydrophila
Summary of the method: (§1)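 First, colonies from LB agar were grown in LB at 37° C, 185 rpm, to McFarland turbidity 0.5, then centrifuged and resuspended in fresh LB. Next, wells received 5×10^5 CFU/mL bacteria plus two-fold serially diluted EGF domain protein (triplicate). Finally, plates were shaken at 37° C and the no-growth concentration taken as MIC.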

Proteus mirabilis = experiment: MIC against Gram-negative bacteria: Proteus mirabilis
Summary of the method: as §1

Proteus vulgaris = experiment: MIC against Gram-negative bacteria: Proteus vulgaris
Summary of the method: as §1

Serratia marcescens = experiment: MIC against Gram-negative bacteria: Serratia marcescens
Summary of the method: as §1

Pseudomonas aeruginosa = experiment: MIC against Gram-negative bacteria: Pseudomonas aeruginosa
Summary of the method: as §1

E. coli BL21 = experiment: MIC against Gram-negative bacteria: E. coli BL21
Summary of the method: as §1

Citrobacter diversus = experiment: MIC against Gram-negative bacteria: Citrobacter diversus
Summary of the method: as §1

E. coli DH5α = experiment: Antibacterial activity: MIC and growth curve against E. coli DH5α in 96-well plate; conditions: minimal inhibitory concentration against E. coli DH5α; 96-well plate, 5×10^5 CFU/mL, 37° C., judged after 8 h
Summary of the method: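 MIC taken as lowest protein level with no bacterial growth, tracked by A600 every 30 min during 37 °C, 175 rpm culture. Two-fold protein series 50-12.5 μg/mL final, triplicate wells, against 5×10^5 CFU/mL of LB-washed mid-log cells.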

Enterobacter cloacae = experiment: MIC against Gram-negative bacteria: Enterobacter cloacae
Summary of the method: as §1

Klebsiella pneumonia = experiment: MIC against Gram-negative bacteria: Klebsiella pneumonia
Summary of the method: as §1

Moraxella catarrhalis = experiment: MIC against Gram-negative bacteria: Moraxella catarrhalis
Summary of the method: as §1

[1] = 10 h cultivation at 37° C., 5×10^5 CFU/mL, two-fold serial dilution
[2] = 96-well plate, 5×10^5 CFU/mL, 37° C., 10 h

With “PRT1170 (RNSSCLPNPCHNGGTCVVNGESFTCVCKEGWEGPICA; listed as Homo sapiens)” the “MIC A. hydrophila” value (Aeromonas hydrophila; [1]) was 50 µg/mL, the “MIC P. mirabilis” value (Proteus mirabilis; [1]) was 12.5 µg/mL and the “MIC P. vulgaris” value (Proteus vulgaris; [1]) was 12.5 µg/mL. For the same substance, the “MIC S. marcescens” value (Serratia marcescens; [1]) was 25 µg/mL, the “MIC P. aeruginosa” value (Pseudomonas aeruginosa; [1]) was 25 µg/mL and the “MIC E. coli BL21” value (E. coli BL21; [1]) was 12.5 µg/mL. The “MIC C. diversus” value (Citrobacter diversus; [1]) was 12.5 µg/mL, the MIC (E. coli DH5α) was 25 µg/mL and the “MIC E. cloacae” value (Enterobacter cloacae; [1]) was 100 µg/mL. The “MIC K. pneumonia” value (Klebsiella pneumonia; [1]) was 12.5 µg/mL and the “MIC M. catarrhalis” value (Moraxella catarrhalis; [1]) was 50 µg/mL.

“PRT516 (CNCSGLGSKNEDPCFGPCICKENVEGGDCSRCKSGFFNLQEDNWKGCDE; listed as Homo sapiens)” was tested, and the “MIC against A. hydrophila” value (Aeromonas hydrophila; [2]) was 25 µg/mL, the “MIC against P. mirabilis” value (Proteus mirabilis; [2]) was 12.5 µg/mL and the “MIC against P. vulgaris” value (Proteus vulgaris; [2]) was 25 µg/mL. The “MIC against S. marcescens” value (Serratia marcescens; [2]) was 50 µg/mL, the “MIC against P. aeruginosa” value (Pseudomonas aeruginosa; [2]) was 12.5 µg/mL and the “MIC against E. coli BL21” value (E. coli BL21; [2]) was 50 µg/mL. The “MIC against C. diversus” value (Citrobacter diversus; [2]) was 50 µg/mL, the MIC (E. coli DH5α) was 12.5 µg/mL and the “MIC against E. cloacae” value (Enterobacter cloacae; [2]) was 12.5 µg/mL. For the same substance, the “MIC against K. pneumonia” value (Klebsiella pneumonia; [2]) was 50 µg/mL and the “MIC against M. catarrhalis” value (Moraxella catarrhalis; [2]) was 25 µg/mL.

With “PRT912 (DVNECLSNPCDARGTQNCVQRVNDFHCECRAGHTGRRCE; listed as Homo sapiens)” the MIC (Aeromonas hydrophila; A. hydrophila, 10 h cultivation at 37° C.) was 100 µg/mL, the MIC (Proteus mirabilis; P. mirabilis, 10 h cultivation at 37° C.) was 50 µg/mL and the MIC (Proteus vulgaris; P. vulgaris, 10 h cultivation at 37° C.) was 100 µg/mL. For the same substance, the MIC (Serratia marcescens; S. marcescens, 10 h cultivation at 37° C.) was 50 µg/mL, the MIC (Pseudomonas aeruginosa; P. aeruginosa, 10 h cultivation at 37° C.) was 25 µg/mL and the MIC (E. coli BL21; E. coli BL21, 10 h cultivation at 37° C.) was 12.5 µg/mL. For the same substance, the MIC (Citrobacter diversus; C. diversus, 10 h cultivation at 37° C.) was 50 µg/mL, the MIC (E. coli DH5α) was 25 µg/mL and the MIC (Enterobacter cloacae; E. cloacae, 10 h cultivation at 37° C.) was 25 µg/mL. For the same substance, the MIC (Klebsiella pneumonia; K. pneumonia, 10 h cultivation at 37° C.) was 50 µg/mL and the MIC (Moraxella catarrhalis; M. catarrhalis, 10 h cultivation at 37° C.) was 12.5 µg/mL.

With “PRT1367 (YPACPENCSGHGECVRGVCQCHEDFMSEDCS; listed as Homo sapiens)” the “MIC against A. hydrophila” value (Aeromonas hydrophila; Aeromonas hydrophila, 5×10^5 CFU/mL, 10 h cultivation at 37° C.) was 50 µg/mL, the “MIC against P. mirabilis” value (Proteus mirabilis; Proteus mirabilis, 5×10^5 CFU/mL, 10 h cultivation at 37° C.) was 12.5 µg/mL and the “MIC against P. vulgaris” value (Proteus vulgaris; Proteus vulgaris, 5×10^5 CFU/mL, 10 h cultivation at 37° C.) was 50 µg/mL. For the same substance, the “MIC against S. marcescens” value (Serratia marcescens; Serratia marcescens, 5×10^5 CFU/mL, 10 h cultivation at 37° C.) was 25 µg/mL, the “MIC against P. aeruginosa” value (Pseudomonas aeruginosa; Pseudomonas aeruginosa, 5×10^5 CFU/mL, 10 h cultivation at 37° C.) was 25 µg/mL and the “MIC against E. coli BL21” value (E. coli BL21; E. coli BL21, 5×10^5 CFU/mL, 10 h cultivation at 37° C.) was 50 µg/mL. For the same substance, the “MIC against C. diversus” value (Citrobacter diversus; Citrobacter diversus, 5×10^5 CFU/mL, 10 h cultivation at 37° C.) was 12.5 µg/mL, the MIC (E. coli DH5α) was 25 µg/mL and the “MIC against E. cloacae” value (Enterobacter cloacae; Enterobacter cloacae, 5×10^5 CFU/mL, 10 h cultivation at 37° C.) was 25 µg/mL. For the same substance, the “MIC against K. pneumonia” value (Klebsiella pneumonia; Klebsiella pneumonia, 5×10^5 CFU/mL, 10 h cultivation at 37° C.) was 12.5 µg/mL and the “MIC against M. catarrhalis” value (Moraxella catarrhalis; Moraxella catarrhalis, 5×10^5 CFU/mL, 10 h cultivation at 37° C.) was 50 µg/mL.

With “PRT789 (YGNDCHQRCQCQNGATCDHVTGECRCPPGYTGAFCE; listed as Homo sapiens)” the “MIC (μg/mL) A. hydrophila” value (Aeromonas hydrophila; A. hydrophila, 10 h cultivation at 37° C., 5×10^5 CFU/mL) was 12.5 µg/mL, the “MIC (μg/mL) P. mirabilis” value (Proteus mirabilis; P. mirabilis, 10 h cultivation at 37° C., 5×10^5 CFU/mL) was 50 µg/mL and the “MIC (μg/mL) P. vulgaris” value (Proteus vulgaris; P. vulgaris, 10 h cultivation at 37° C., 5×10^5 CFU/mL) was 25 µg/mL. For the same substance, the “MIC (μg/mL) S. marcescens” value (Serratia marcescens; S. marcescens, 10 h cultivation at 37° C., 5×10^5 CFU/mL) was 12.5 µg/mL, the “MIC (μg/mL) P. aeruginosa” value (Pseudomonas aeruginosa; P. aeruginosa, 10 h cultivation at 37° C., 5×10^5 CFU/mL) was 25 µg/mL and the “MIC (μg/mL) E. coli BL21” value (E. coli BL21; E. coli BL21, 10 h cultivation at 37° C., 5×10^5 CFU/mL) was 50 µg/mL. For the same substance, the “MIC (μg/mL) C. diversus” value (Citrobacter diversus; C. diversus, 10 h cultivation at 37° C., 5×10^5 CFU/mL) was 25 µg/mL, the MIC (E. coli DH5α) was 25 µg/mL and the “MIC (μg/mL) E. cloacae” value (Enterobacter cloacae; E. cloacae, 10 h cultivation at 37° C., 5×10^5 CFU/mL) was 50 µg/mL. The “MIC (μg/mL) K. pneumonia” value (Klebsiella pneumonia; K. pneumonia, 10 h cultivation at 37° C., 5×10^5 CFU/mL) was 12.5 µg/mL and the “MIC (μg/mL) M. catarrhalis” value (Moraxella catarrhalis; M. catarrhalis, 10 h cultivation at 37° C., 5×10^5 CFU/mL) was 25 µg/mL.

With “PRT545 (CNCSGPGIQELTDPTCDTDSGQCKCRPNVTGRRCDTCSPGFHGYPRCRP; listed as Homo sapiens)” the “MIC against A. hydrophila” value (Aeromonas hydrophila; [2]) was 25 µg/mL, the “MIC against P. mirabilis” value (Proteus mirabilis; [2]) was 12.5 µg/mL and the “MIC against P. vulgaris” value (Proteus vulgaris; [2]) was 12.5 µg/mL. The “MIC against S. marcescens” value (Serratia marcescens; [2]) was 50 µg/mL, the “MIC against P. aeruginosa” value (Pseudomonas aeruginosa; [2]) was 12.5 µg/mL and the “MIC against E. coli BL21” value (E. coli BL21; [2]) was 12.5 µg/mL. For the same substance, the “MIC against C. diversus” value (Citrobacter diversus; [2]) was 12.5 µg/mL, the MIC (E. coli DH5α) was 12.5 µg/mL and the “MIC against E. cloacae” value (Enterobacter cloacae; [2]) was 12.5 µg/mL. The “MIC against K. pneumonia” value (Klebsiella pneumonia; [2]) was 25 µg/mL and the “MIC against M. catarrhalis” value (Moraxella catarrhalis; [2]) was 12.5 µg/mL.
